Values of other authors as cited in US12275835B1, “High clarity antimicrobial resins” (Phoenix Plastics L.P., priority 2020, dated 2025).

Columns and labels:
Gram-positive bacteria = conditions: within 30 seconds
Gram-negative bacteria = conditions: within 30 seconds

N=C(NCCCCCCNC(=N)NC(=N)Nc1ccc(Cl)cc1)NC(=N)Nc1ccc(Cl)cc1 [chlorhexidine]
kill of Gram-positive bacteria (Gram-positive bacteria): ~100% | kill of Gram-negative bacteria (Gram-negative bacteria): ~100%
